Laboratory results as given in patent US11746087B1, “C4-carboxylic acid-substituted tryptamine derivatives and methods of using” (priority 2022, dated 2023).
Where two headings read alike, the source gives them in different places.

How the values were obtained:
[1] = Mouse PK study (IV and PO), plasma parent compound and psilocin by LC-MS/MS; type: in vivo; conditions: male, C57Bl/6, mouse, plasma; for C0: read-out: C0; for Vd: read-out: Vss
Excerpt: Briefly, the procedure was as follows. […] 19, 2022.

[2] = biological target: DRD2S (Homo sapiens, UniProt P14416); assay: EFC-based cAMP secondary messenger assay, agonist mode; type: cell-based
[3] = biological target: HTR2B (5-HT2B) (Homo sapiens, UniProt P41595); assay: Calcium secondary messenger assay, antagonist mode; type: cell-based
[4] = biological target: T1, HTR3A (5-HT3A) (Homo sapiens, UniProt P46098); assay: Ion channel assay (FLIPR membrane potential), opener; type: cell-based
T1 sequence (P46098 24-478): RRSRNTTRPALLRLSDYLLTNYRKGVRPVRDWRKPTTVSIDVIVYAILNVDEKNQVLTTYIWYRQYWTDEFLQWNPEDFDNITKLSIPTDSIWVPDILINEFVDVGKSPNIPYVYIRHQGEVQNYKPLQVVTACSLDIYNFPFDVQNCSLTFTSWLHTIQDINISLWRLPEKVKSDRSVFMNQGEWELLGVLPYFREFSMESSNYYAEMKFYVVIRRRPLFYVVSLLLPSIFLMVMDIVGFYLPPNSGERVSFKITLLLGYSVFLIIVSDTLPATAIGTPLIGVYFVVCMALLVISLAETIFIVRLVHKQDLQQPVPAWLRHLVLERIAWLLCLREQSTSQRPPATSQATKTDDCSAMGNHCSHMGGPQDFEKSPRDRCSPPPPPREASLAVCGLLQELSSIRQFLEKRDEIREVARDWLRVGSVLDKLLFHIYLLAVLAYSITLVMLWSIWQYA

[5] = biological target: T2, MAO-A (Homo sapiens, UniProt P21397); assay: MAO-A enzyme assay (kynuramine); type: biochemical
T2 construct: purchased Sigma
T2 sequence (P21397 1-527): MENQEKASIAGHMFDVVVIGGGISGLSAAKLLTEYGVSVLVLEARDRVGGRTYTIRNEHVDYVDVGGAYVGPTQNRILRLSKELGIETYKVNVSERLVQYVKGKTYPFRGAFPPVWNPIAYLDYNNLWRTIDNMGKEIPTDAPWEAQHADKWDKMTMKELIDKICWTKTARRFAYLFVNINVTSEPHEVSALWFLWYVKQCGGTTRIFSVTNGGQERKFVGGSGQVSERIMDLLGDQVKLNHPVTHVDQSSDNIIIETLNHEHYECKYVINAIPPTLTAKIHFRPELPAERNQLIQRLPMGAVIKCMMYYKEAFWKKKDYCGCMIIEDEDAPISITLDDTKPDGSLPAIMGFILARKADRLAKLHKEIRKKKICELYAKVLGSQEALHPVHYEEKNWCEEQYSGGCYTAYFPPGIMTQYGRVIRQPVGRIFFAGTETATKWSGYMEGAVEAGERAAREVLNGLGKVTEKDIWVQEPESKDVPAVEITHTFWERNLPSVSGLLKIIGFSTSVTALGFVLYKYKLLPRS

[6] = biological target: DAT (Homo sapiens, UniProt Q01959); assay: Neurotransmitter transporter uptake assay, blocker; type: cell-based
[7] = biological target: NMDAR (Homo sapiens, UniProt Q05586+Q13224); assay: Ion channel assay (FLIPR membrane potential), blocker; type: cell-based
[8] = iv, 1 mg/kg, C(XX) in plasma, 1 mg/kg i.v. C(XX), Mean ± SD
[9] = iv, 1 mg/kg, C(XX) in plasma, 1 mg/kg i.v. C(XX), per animal
[10] = oral, 1 mg/kg, 1 mg/kg oral C(XX), Mean ± SD, read-out: Plasma concentration of C(XX)
[11] = oral, 1 mg/kg, 1 mg/kg oral C(XX), per animal, BLQ <0.25 ng/mL, read-out: Plasma concentration of C(XX)
[12] = oral, 3 mg/kg, 3 mg/kg oral C(XX), Mean ± SD, read-out: Plasma concentration of C(XX)
[13] = oral, 3 mg/kg, 3 mg/kg oral C(XX), per animal, BLQ <0.25 ng/mL, read-out: Plasma concentration of C(XX)
[14] = oral, 10 mg/kg, 10 mg/kg oral C(XX), Mean ± SD, read-out: Plasma concentration of C(XX)
[15] = oral, 10 mg/kg, 10 mg/kg oral C(XX), per animal, BLQ <0.25 ng/mL, read-out: Plasma concentration of C(XX)
[16] = oral, 10 mg/kg, 10 mg/kg oral C(XX), mean (n = 2), read-out: Plasma concentration of C(XX)

DRD2S, sequence (P14416 1-414 isoform P14416-2): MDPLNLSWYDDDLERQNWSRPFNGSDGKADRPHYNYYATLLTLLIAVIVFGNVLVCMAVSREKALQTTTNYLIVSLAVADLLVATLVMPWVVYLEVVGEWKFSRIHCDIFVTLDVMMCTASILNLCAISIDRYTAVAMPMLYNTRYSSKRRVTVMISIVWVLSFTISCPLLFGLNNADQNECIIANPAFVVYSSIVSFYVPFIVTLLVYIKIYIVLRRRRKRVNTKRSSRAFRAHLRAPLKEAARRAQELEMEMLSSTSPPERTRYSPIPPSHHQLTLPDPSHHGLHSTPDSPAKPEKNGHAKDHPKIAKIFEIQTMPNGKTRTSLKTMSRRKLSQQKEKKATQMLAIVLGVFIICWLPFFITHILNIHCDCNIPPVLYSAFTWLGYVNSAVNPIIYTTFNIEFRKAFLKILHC
DAT, sequence (Q01959 whole entry): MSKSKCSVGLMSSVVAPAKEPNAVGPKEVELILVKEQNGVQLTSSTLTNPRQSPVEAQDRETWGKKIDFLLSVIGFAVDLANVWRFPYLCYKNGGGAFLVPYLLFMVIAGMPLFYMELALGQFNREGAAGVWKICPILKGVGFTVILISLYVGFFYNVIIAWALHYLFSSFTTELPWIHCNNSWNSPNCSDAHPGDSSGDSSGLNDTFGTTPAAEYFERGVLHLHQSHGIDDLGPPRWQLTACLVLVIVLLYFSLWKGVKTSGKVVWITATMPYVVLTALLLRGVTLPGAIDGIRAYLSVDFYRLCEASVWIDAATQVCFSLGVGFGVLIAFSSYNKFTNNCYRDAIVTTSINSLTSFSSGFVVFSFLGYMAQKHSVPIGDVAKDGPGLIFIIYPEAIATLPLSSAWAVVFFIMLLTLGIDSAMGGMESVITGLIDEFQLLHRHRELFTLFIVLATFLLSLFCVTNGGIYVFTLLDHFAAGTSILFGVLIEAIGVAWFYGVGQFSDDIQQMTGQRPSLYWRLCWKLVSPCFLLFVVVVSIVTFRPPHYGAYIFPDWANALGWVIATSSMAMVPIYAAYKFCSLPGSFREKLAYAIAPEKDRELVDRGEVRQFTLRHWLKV
HTR2B (5-HT2B), sequence (P41595 whole entry): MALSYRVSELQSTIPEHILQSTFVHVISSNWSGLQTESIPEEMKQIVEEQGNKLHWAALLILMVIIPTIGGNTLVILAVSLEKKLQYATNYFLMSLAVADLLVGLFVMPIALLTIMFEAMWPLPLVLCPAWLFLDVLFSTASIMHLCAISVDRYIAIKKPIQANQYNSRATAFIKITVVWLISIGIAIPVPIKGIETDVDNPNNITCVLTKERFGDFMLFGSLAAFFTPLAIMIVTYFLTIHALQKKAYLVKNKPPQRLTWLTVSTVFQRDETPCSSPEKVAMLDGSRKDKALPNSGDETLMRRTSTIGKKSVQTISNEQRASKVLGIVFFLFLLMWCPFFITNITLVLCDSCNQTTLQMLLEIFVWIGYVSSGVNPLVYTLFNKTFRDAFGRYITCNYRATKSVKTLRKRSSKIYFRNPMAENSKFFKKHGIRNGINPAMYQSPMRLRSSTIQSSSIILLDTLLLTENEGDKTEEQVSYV
NMDAR, sequence (Q13224 27-1484, other chains not shown): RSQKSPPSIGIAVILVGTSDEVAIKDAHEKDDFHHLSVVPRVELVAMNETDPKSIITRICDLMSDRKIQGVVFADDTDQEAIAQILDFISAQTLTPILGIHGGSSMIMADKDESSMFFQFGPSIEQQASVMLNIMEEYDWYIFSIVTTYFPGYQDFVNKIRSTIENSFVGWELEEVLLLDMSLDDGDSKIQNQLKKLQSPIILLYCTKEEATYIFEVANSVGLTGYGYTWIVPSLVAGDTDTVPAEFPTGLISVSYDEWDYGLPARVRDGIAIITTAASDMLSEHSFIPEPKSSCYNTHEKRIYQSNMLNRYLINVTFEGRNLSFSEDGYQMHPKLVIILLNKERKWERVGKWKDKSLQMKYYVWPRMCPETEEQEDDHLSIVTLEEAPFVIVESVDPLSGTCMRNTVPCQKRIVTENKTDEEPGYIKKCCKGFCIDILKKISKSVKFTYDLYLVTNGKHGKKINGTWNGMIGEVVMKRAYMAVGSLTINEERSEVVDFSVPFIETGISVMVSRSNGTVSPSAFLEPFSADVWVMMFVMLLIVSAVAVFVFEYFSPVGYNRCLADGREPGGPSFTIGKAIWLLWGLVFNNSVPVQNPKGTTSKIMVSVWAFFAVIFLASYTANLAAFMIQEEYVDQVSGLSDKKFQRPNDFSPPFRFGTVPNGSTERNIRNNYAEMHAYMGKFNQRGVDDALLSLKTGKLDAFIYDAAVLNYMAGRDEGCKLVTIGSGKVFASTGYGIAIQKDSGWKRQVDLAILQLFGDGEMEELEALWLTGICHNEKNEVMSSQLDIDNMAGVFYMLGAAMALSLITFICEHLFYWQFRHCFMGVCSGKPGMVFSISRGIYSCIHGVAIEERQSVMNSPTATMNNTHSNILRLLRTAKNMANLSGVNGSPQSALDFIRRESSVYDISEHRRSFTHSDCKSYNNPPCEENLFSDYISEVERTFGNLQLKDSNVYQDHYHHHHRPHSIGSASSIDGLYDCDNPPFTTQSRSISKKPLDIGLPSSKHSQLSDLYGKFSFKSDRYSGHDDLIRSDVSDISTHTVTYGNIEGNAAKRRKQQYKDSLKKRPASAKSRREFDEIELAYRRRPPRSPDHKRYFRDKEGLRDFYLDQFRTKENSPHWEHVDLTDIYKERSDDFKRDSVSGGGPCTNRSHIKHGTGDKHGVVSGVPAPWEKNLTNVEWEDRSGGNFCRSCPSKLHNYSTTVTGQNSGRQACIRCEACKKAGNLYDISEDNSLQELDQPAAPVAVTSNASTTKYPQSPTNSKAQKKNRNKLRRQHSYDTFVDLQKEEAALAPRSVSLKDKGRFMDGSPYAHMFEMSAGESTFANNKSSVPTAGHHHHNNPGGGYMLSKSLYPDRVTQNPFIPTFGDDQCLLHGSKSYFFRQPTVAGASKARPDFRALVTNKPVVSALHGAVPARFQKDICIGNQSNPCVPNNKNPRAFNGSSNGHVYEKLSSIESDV

CN(C)CCc1c[nH]c2cccc(OC(=O)c3cccc4c3OCCO4)c12 [C(XX)]
clearance [1, 8]: 320 mL/min/kg | AUC(0-inf) ([1]; iv, 1 mg/kg, C(XX) in plasma, 1 mg/kg i.v. C(XX), Mean ± SD, read-out: AUC0-inf): 53 ± 8.26 ng·h/mL | AUC(0-t) ([1]; iv, 1 mg/kg, C(XX) in plasma, 1 mg/kg i.v. C(XX), Mean ± SD, read-out: AUC0-tlast): 52.8 ± 8.3 ng·h/mL | half-life ([1]; iv, 1 mg/kg, C(XX) in plasma, 1 mg/kg i.v. C(XX), Mean ± SD, read-out: Apparent t1/2 (converted)): 33.8 ± 3.23 min | C0 [1, 8]: 161 ± 37.3 ng/mL | MRT inf ([1]; iv, 1 mg/kg, C(XX) in plasma, 1 mg/kg i.v. C(XX), Mean ± SD, read-out: MRT0-inf): 24.7 ± 2.27 min | Vd [1, 8]: 7.94 ± 1.79 L/kg | clearance [1, 9]: 345 mL/min/kg | AUC(0-inf) ([1]; iv, 1 mg/kg, C(XX) in plasma, 1 mg/kg i.v. C(XX), per animal, read-out: AUC0-inf): 48.3 ng·h/mL | AUC(0-t) ([1]; iv, 1 mg/kg, C(XX) in plasma, 1 mg/kg i.v. C(XX), per animal, read-out: AUC0-tlast): 48.1 ng·h/mL | half-life ([1]; iv, 1 mg/kg, C(XX) in plasma, 1 mg/kg i.v. C(XX), per animal, read-out: Apparent t1/2 (converted)): 37.5 min | C0 [1, 9]: 140 ng/mL | MRT inf ([1]; iv, 1 mg/kg, C(XX) in plasma, 1 mg/kg i.v. C(XX), per animal, read-out: MRT0-inf): 26.2 min | Vd [1, 9]: 9.03 L/kg | concentration at 0.25 h [1, 10]: 0.603 ± 0.127 ng/mL | concentration at 0.25 h [1, 11]: 0.701 ng/mL | concentration at 0.5 h [1, 10]: 0.62 ± 0.0996 ng/mL | concentration at 0.5 h [1, 11]: 0.702 ng/mL | concentration at 1 h [1, 10]: 0.294 ± 0.0987 ng/mL | concentration at 1 h [1, 11]: 0.396 ng/mL | concentration at 0.25 h [1, 12]: 1.71 ± 0.22 ng/mL | concentration at 0.25 h [1, 13]: 1.49 ng/mL | concentration at 0.5 h [1, 12]: 1.34 ± 0.179 ng/mL | concentration at 0.5 h [1, 13]: 1.45 ng/mL | concentration at 1 h [1, 12]: 0.572 ± 0.164 ng/mL | concentration at 1 h [1, 13]: 0.43 ng/mL | concentration at 2 h [1, 12]: 0.175 ± 0.0621 ng/mL | concentration at 2 h [1, 13]: 0.124 ng/mL | concentration at 0.25 h [1, 14]: 7.47 ± 3.92 ng/mL | concentration at 0.5 h [1, 14]: 4.15 ± 1.52 ng/mL | concentration at 1 h [1, 14]: 1.99 ± 0.657 ng/mL | concentration at 1 h [1, 15]: 1.53 ng/mL | concentration at 2 h [1, 14]: 0.773 ± 0.279 ng/mL | concentration at 4 h [1, 16]: 0.264 ng/mL | concentration at 4 h [1, 15]: 0.225 ng/mL | concentration at 6 h ([1]; oral, 10 mg/kg, 10 mg/kg oral C(XX), 6 h, mean (n = 2), read-out: Plasma concentration of C(XX)): 0.36 ng/mL | concentration at 8 h [1, 16]: 0.26 ng/mL | concentration at 8 h [1, 15]: 0.335 ng/mL | Cmax ([1]; po, 1 mg/kg, C(XX) in plasma, 1 mg/kg oral C(XX), Mean ± SD, read-out: Cmax): 0.62 ± 0.0996 ng/mL | Tmax ([1]; po, 1 mg/kg, C(XX) in plasma, 1 mg/kg oral C(XX), Mean ± SD, read-out: tmax): 25 ± 8.64 min | Cmax ([1]; po, 1 mg/kg, C(XX) in plasma, 1 mg/kg oral C(XX), per animal, read-out: Cmax): 0.702 ng/mL | Tmax ([1]; po, 1 mg/kg, C(XX) in plasma, 1 mg/kg oral C(XX), per animal, read-out: tmax): 30 min | half-life ([1]; po, 3 mg/kg, 3 mg/kg p.o. C(XX), mean ± SD, read-out: Apparent t1/2 of C(XX) in plasma (converted)): 31.7 min | AUC(0-inf) ([1]; po, 3 mg/kg, C(XX) in plasma, 3 mg/kg oral C(XX), Mean ± SD, read-out: AUC0-inf): 1.51 ± 0.21 ng·h/mL | AUC(0-t) ([1]; po, 3 mg/kg, C(XX) in plasma, 3 mg/kg oral C(XX), Mean ± SD, read-out: AUC0-tlast): 1.37 ± 0.137 ng·h/mL | half-life ([1]; po, 3 mg/kg, C(XX) in plasma, 3 mg/kg oral C(XX), Mean ± SD, read-out: Apparent t1/2 (converted)): 31.7 ± 7.38 min | Cmax ([1]; po, 3 mg/kg, C(XX) in plasma, 3 mg/kg oral C(XX), Mean ± SD, read-out: Cmax): 1.71 ± 0.22 ng/mL | MRT inf ([1]; po, 3 mg/kg, C(XX) in plasma, 3 mg/kg oral C(XX), Mean ± SD, read-out: MRT0-inf): 53.9 ± 9.48 min | Tmax ([1]; po, 3 mg/kg, C(XX) in plasma, 3 mg/kg oral C(XX), Mean ± SD, read-out: tmax): 15 min | AUC(0-inf) ([1]; po, 3 mg/kg, C(XX) in plasma, 3 mg/kg oral C(XX), per animal, read-out: AUC0-inf): 1.3 ng·h/mL | AUC(0-t) ([1]; po, 3 mg/kg, C(XX) in plasma, 3 mg/kg oral C(XX), per animal, read-out: AUC0-tlast): 1.22 ng·h/mL | half-life ([1]; po, 3 mg/kg, C(XX) in plasma, 3 mg/kg oral C(XX), per animal, read-out: Apparent t1/2 (converted)): 26.3 min | Cmax ([1]; po, 3 mg/kg, C(XX) in plasma, 3 mg/kg oral C(XX), per animal, read-out: Cmax): 1.49 ng/mL | MRT inf ([1]; po, 3 mg/kg, C(XX) in plasma, 3 mg/kg oral C(XX), per animal, read-out: MRT0-inf): 47.6 min | Tmax ([1]; po, 3 mg/kg, C(XX) in plasma, 3 mg/kg oral C(XX), per animal, read-out: tmax): 15 min | AUC(0-inf) ([1]; po, 10 mg/kg, 10 mg/kg oral C(XX), individual animals, read-out: AUC0-inf of C(XX) in plasma): 5.4 ng·h/mL | AUC(0-t) ([1]; po, 10 mg/kg, 10 mg/kg oral C(XX), individual animals, read-out: AUC0-tlast of C(XX) in plasma): 5.65 ng·h/mL | Tmax ([1]; po, 10 mg/kg, 10 mg/kg oral C(XX), individual animals, read-out: tmax of C(XX) in plasma): 15 min | AUC(0-inf) ([1]; po, 10 mg/kg, 10 mg/kg oral C(XX), mean (n = 2), read-out: AUC0-inf of C(XX) in plasma): 8.03 ng·h/mL | half-life ([1]; po, 10 mg/kg, 10 mg/kg oral C(XX), mean (n = 2), read-out: Apparent t1/2 of C(XX) in plasma (converted)): 186 min | MRT inf ([1]; po, 10 mg/kg, 10 mg/kg oral C(XX), mean (n = 2), read-out: MRT0-inf of C(XX) in plasma): 131 min | AUC(0-t) ([1]; po, 10 mg/kg, 10 mg/kg oral C(XX), mean ± SD, read-out: AUC0-tlast of C(XX) in plasma): 6.6 ± 2.24 ng·h/mL | Cmax ([1]; po, 10 mg/kg, 10 mg/kg oral C(XX), mean ± SD, read-out: Cmax of C(XX) in plasma): 7.47 ± 3.92 ng/mL | Tmax ([1]; po, 10 mg/kg, 10 mg/kg oral C(XX), mean ± SD, read-out: tmax of C(XX) in plasma): 15 min | EC50 [2]: 1.72 µM | IC50 [3]: 0.016 µM | EC50 [4]: > 100 µM | IC50 [5]: > 100 µM | IC50 [6]: > 100 µM | IC50 [7]: > 100 µM
